Experiments:
[1] = target: CDK2 (Human) (UniProt P24941); assay: Enzyme Assay
[2] = target: CDK2 (Human) (UniProt P24941); assay: Enzyme Assay; remark: listed apart in the source

SMILES	IC50 [1] [nM]	IC50 [2] [nM]
CC(C)c1[nH]n(-c2c(Cl)cccc2Cl)c2nc(Cc3ccc(OCCO)cc3)nc(=O)c1-2	141	67
Cc1ccc([N+](=O)[O-])cc1S(=O)(=O)N(C)/N=C/c1cnc2ccc(Br)cn12	278	168
N#CCCc1ccc2c(c1)-c1[nH]c3ccc([N+](=O)[O-])cc3c1CC(=O)N2	333	216
COc1cc(Nc2ncc3ccn(-c4cccc(CCC#N)c4)c3n2)cc(OC)c1OC	> 25000	> 25000
CC(C)n1cnc2c(NCc3ccccc3O)nc(NCCCO)nc21	506	1210
O=C1Nc2ccc3ncsc3c2/C1=C/c1cnc[nH]1	135	94
NC1=NC(=O)/C(=C2\CCNC(=O)c3[nH]c4ccccc4c32)N1	1280	–
CCCCCCCCCCCCCCCCn1cc[n+](Cc2ccccc2)c1C	24500	3910
O=C1Nc2ccccc2C1=C1Nc2ccccc2C1=NOCCC(O)CO (stereo not drawn)	930	–
O=C1Nc2ccc(I)cc2/C1=C1/Nc2ccccc2/C1=N\O	379	1520
CCN(CC)C(=O)c1ccc(Nc2nc(OCC3CCCCC3)c3[nH]cnc3n2)cc1	4490	6470
O=C1NC(=O)c2c1c1c3ccccc3n3c1c1c2c2ccccc2n1C1CCC3O1	871	283
Cn1cc(C2=C(c3cn(CCCSC(=N)N)c4ccccc34)C(=O)NC2=O)c2ccccc21	318	147
CC(=O)O/N=C1/C(=C2/C(=O)Nc3cc(Br)ccc32)Nc2ccccc21	787	78300
CC(C)[C@H](CO)Nc1nc(Nc2cccc(Cl)c2)c2ncn(C(C)C)c2n1	204	503
